System: Jurkat T cells
Assay: mRNA sequencing of activated Jurkat T cells
Type: cell-based, human
Conditions: Jurkat T cells, P + I

Sequence: PEITVTPPTP [CABIN1-L-1-2]
- ABTB2 FPKM: 6.382 FPKM
- ACAP1 FPKM: 26.535 FPKM
- ACSF3 FPKM: 15.621 FPKM
- ADA FPKM: 73.254 FPKM
- ADAMTS17 FPKM: 0.882 FPKM
- ADCYAP1 FPKM: 3.219 FPKM
- ADORA2A FPKM: 1.475 FPKM
- AFF2 FPKM: 3.175 FPKM
- AGK FPKM: 14.306 FPKM
- ALDH1A2 FPKM: 6.66 FPKM
- ALOX5AP FPKM: 39.735 FPKM
- ANKEF1 FPKM: 2.575 FPKM
- ANO8 FPKM: 2.721 FPKM
- ANTXR2 FPKM: 55.18 FPKM
- APH1B FPKM: 4.206 FPKM
- APOBEC3B-AS1 FPKM: 20.386 FPKM
- APOBEC3F FPKM: 7.066 FPKM
- APOBEC3G FPKM: 9.231 FPKM
- APOL1 FPKM: 4.498 FPKM
- ARHGAP4 FPKM: 16.216 FPKM
- ARHGAP25 FPKM: 2.157 FPKM
- ARHGAP31 FPKM: 11.177 FPKM
- ARHGEF3 FPKM: 8.674 FPKM
- ARPP21 FPKM: 0.7 FPKM
- ASB13 FPKM: 2.543 FPKM
- ASNS FPKM: 19.026 FPKM
- ATHL1 FPKM: 6.014 FPKM
- ATP2A3 FPKM: 36.996 FPKM
- ATP6V0A4 FPKM: 18.558 FPKM
- ATP6V1B2 FPKM: 60.661 FPKM
- ATPAF1 FPKM: 10.283 FPKM
- AVPR2 FPKM: 1.492 FPKM
- B2M FPKM: 1302.512 FPKM
- BAHCC1 FPKM: 0.873 FPKM
- BCL2A1 FPKM: 51.928 FPKM
- BCL2L1 FPKM: 41.852 FPKM
- BCL3 FPKM: 17.15 FPKM
- BCL6 FPKM: 15.55 FPKM
- BCL7A FPKM: 12.277 FPKM
- BCL11B FPKM: 3.353 FPKM
- BEND6 FPKM: 1.409 FPKM
- BIN1 FPKM: 1.968 FPKM
- BIRC3 FPKM: 58.303 FPKM
- C10orf55 FPKM: 15.779 FPKM
- C11orf74 FPKM: 0.392 FPKM
- C21orf58 FPKM: 6.073 FPKM
- CABP1 FPKM: 1.689 FPKM
- CAMK2D FPKM: 6.138 FPKM
- CARHSP1 FPKM: 14.562 FPKM
- CBFA2T3 FPKM: 11.821 FPKM
- CBLB FPKM: 7.757 FPKM
- CBS FPKM: 3.916 FPKM
- CBX2 FPKM: 2.454 FPKM
- CCDC15 FPKM: 2.926 FPKM
- CCL3 FPKM: 0.502 FPKM
- CCL3L3 FPKM: 0.079 FPKM
- CCL20 FPKM: 1.279 FPKM
- CCND3 FPKM: 25.396 FPKM
- CCNE2 FPKM: 5.206 FPKM
- CD1B FPKM: 4.733 FPKM
- CD1E FPKM: 3.521 FPKM
- CD70 FPKM: 7.606 FPKM
- CD82 FPKM: 222.109 FPKM
- CD97 FPKM: 21.496 FPKM
- CD200 FPKM: 0.094 FPKM
- CD274 FPKM: 15.92 FPKM
- CDKN1A FPKM: 62.513 FPKM
- CDKN2D FPKM: 16.801 FPKM
- CECR1 FPKM: 3.984 FPKM
- CENPM FPKM: 14.415 FPKM
- CEP70 FPKM: 12.745 FPKM
- CERKL FPKM: 10.348 FPKM
- CFLAR FPKM: 3.022 FPKM
- CHEK2 FPKM: 7.751 FPKM
- CHPF2 FPKM: 34.939 FPKM
- CHPF FPKM: 12.714 FPKM
- CHRNA3 FPKM: 3.499 FPKM
- CHST12 FPKM: 12.639 FPKM
- CNN2 FPKM: 18.455 FPKM
- COL27A1 FPKM: 5.729 FPKM
- CPD FPKM: 26.602 FPKM
- CREB3L2 FPKM: 5.857 FPKM
- CREB5 FPKM: 1.966 FPKM
- CSF1 FPKM: 2.594 FPKM
- CSF2 FPKM: 0.314 FPKM
- CXCL8 FPKM: 3.327 FPKM
- CXCL11 FPKM: 3.793 FPKM
- CXCR4 FPKM: 34.014 FPKM
- CYTH1 FPKM: 30.15 FPKM
- DBP FPKM: 1.773 FPKM
- DCBLD2 FPKM: 15.588 FPKM
- DENND5A FPKM: 37.896 FPKM
- DNAJB5 FPKM: 19.35 FPKM
- DSTYK FPKM: 3.595 FPKM
- DTL FPKM: 5.275 FPKM
- DTX1 FPKM: 3.245 FPKM
- DUSP6 FPKM: 12.914 FPKM
- DUSP10 FPKM: 12.142 FPKM
- E2F7 FPKM: 4.018 FPKM
- ECE1 FPKM: 59.384 FPKM
- EFHD2 FPKM: 234.38 FPKM
- EGR1 FPKM: 123.294 FPKM
- EGR2 FPKM: 9 FPKM
- EHBP1L1 FPKM: 5.023 FPKM
- EMP1 FPKM: 4.589 FPKM
- ETS1 FPKM: 38.627 FPKM
- FADS2 FPKM: 48.612 FPKM
- FAM64A FPKM: 6.008 FPKM
- FAT1 FPKM: 11.964 FPKM
- FBLN2 FPKM: 3.01 FPKM
- FKBP5 FPKM: 7.791 FPKM
- FLI1 FPKM: 10.752 FPKM
- FOSL1 FPKM: 12.705 FPKM
- FOSL2 FPKM: 2.362 FPKM
- FXYD5 FPKM: 42.856 FPKM
- FYN FPKM: 15.512 FPKM
- GAD1 FPKM: 2.238 FPKM
- GFOD1 FPKM: 6.312 FPKM
- GFRA1 FPKM: 0.76 FPKM
- GKAP1 FPKM: 2.927 FPKM
- GLRB FPKM: 1.354 FPKM
- GLRX FPKM: 21.013 FPKM
- GNG4 FPKM: 7.415 FPKM
- GPC2 FPKM: 4.85 FPKM
- GPR17 FPKM: 0.181 FPKM
- GPR68 FPKM: 11.224 FPKM
- GSE1 FPKM: 14.556 FPKM
- GTDC1 FPKM: 5.144 FPKM
- GXYLT2 FPKM: 4.24 FPKM
- GZMB FPKM: 909.046 FPKM
- HCAR1 FPKM: 7.943 FPKM
- HIVEP3 FPKM: 20.545 FPKM
- HLA-A FPKM: 226.558 FPKM
- HLA-B FPKM: 160.359 FPKM
- HPGD FPKM: 3.392 FPKM
- IFIT3 FPKM: 6.682 FPKM
- IKZF2 FPKM: 8.132 FPKM
- IL2 FPKM: 12.964 FPKM
- IL4R FPKM: 12.536 FPKM
- IL10RA FPKM: 3.208 FPKM
- IL15 FPKM: 3.16 FPKM
- IL15RA FPKM: 7.481 FPKM
- IL21R FPKM: 5.255 FPKM
- IL21R-AS1 FPKM: 3.991 FPKM
- IL27RA FPKM: 10.764 FPKM
- IQCJ-SCHIP1 FPKM: 1.234 FPKM
- IQGAP2 FPKM: 3.477 FPKM
- IRF1 FPKM: 152.425 FPKM
- IRF2 FPKM: 34.829 FPKM
- IRF4 FPKM: 2.092 FPKM
- IRF7 FPKM: 21.372 FPKM
- ITGA4 FPKM: 31.73 FPKM
- ITGAL FPKM: 7.674 FPKM
- ITK FPKM: 62.324 FPKM
- JAK2 FPKM: 8.45 FPKM
- KCNK1 FPKM: 13.139 FPKM
- KIAA0101 FPKM: 16.766 FPKM
- KIAA0247 FPKM: 8.83 FPKM
- KIR3DX1 FPKM: 3.992 FPKM
- KLF10 FPKM: 15.364 FPKM
- KLF12 FPKM: 4.377 FPKM
- KREMEN1 FPKM: 2.958 FPKM
- LAIR1 FPKM: 7.19 FPKM
- LDLRAD4 FPKM: 4.769 FPKM
- LEF1-AS1 FPKM: 2.388 FPKM
- LEF1 FPKM: 48.109 FPKM
- LGMN FPKM: 1.976 FPKM
- LIF FPKM: 0.231 FPKM
- LIMS2 FPKM: 4.304 FPKM
- LINC00659 FPKM: 9.828 FPKM
- LINC01260 FPKM: 7.215 FPKM
- LMNA FPKM: 2.786 FPKM
- LMO1 FPKM: 0.954 FPKM
- LOC653712 FPKM: 2.808 FPKM
- LOC100506688 FPKM: 1.704 FPKM
- LOC101926963 FPKM: 4.742 FPKM
- LOC101927497 FPKM: 10.444 FPKM
- LPAR6 FPKM: 4.344 FPKM
- LRRC8C FPKM: 11.753 FPKM
- LRRC20 FPKM: 2.839 FPKM
- LTBP4 FPKM: 9.568 FPKM
- LUCATI FPKM: 9.183 FPKM
- MAFF FPKM: 16.464 FPKM
- MAGEA4 FPKM: 3.775 FPKM
- MAL FPKM: 2.026 FPKM
- MAMLD1 FPKM: 9.949 FPKM
- MAP3K7CL FPKM: 2.03 FPKM
- MAST4 FPKM: 5.841 FPKM
- MAZ FPKM: 99.474 FPKM
- MCM2 FPKM: 23.634 FPKM
- MCTP2 FPKM: 3.187 FPKM
- METRN FPKM: 1.604 FPKM
- MFAP4 FPKM: 0.663 FPKM
- MGAT4A FPKM: 8.882 FPKM
- MICAL2 FPKM: 1.84 FPKM
- MIR22HG FPKM: 8.63 FPKM
- MIR3652 FPKM: 567.901 FPKM
- MIR6775 FPKM: 21.57 FPKM
- MIR6821 FPKM: 25.116 FPKM

From patent publication US20240376163A1, “PEPTIDE FOR INHIBITING CALCINEURIN AND USE THEREOF” (Seoul National University R&DB Foundation, priority 2023, published 2024)
